This passage reports IC50 and Emax results from patent US20190119200A1, “TERTIARY AMIDES AND METHOD OF USE” (AbbVie Inc., priority 2016, published 2019).

By pIC50 is commonly meant −log10 of the IC50, conventionally taken in molar units.

Each structure is given as a SMILES string. pIC50: −log10 of the molar value. Bounds are passed on as bounds.

What all share (type): cell-based
For experiment [1], the target named is T1, LPAR1 (Homo sapiens, UniProt Q92633).
T1 construct: host or cells: U2OS
The experiment is described as follows: LPAR1 Arrestin Assay (arrestin reporter assay). As to conditions: U2OS cells stably expressing the LPAR1 receptor, 200 nM 18:1 LPA (EC80); for Emax: read-out: Maximum Inhibition. As to the method: One day prior to the experiment, frozen U2OS cells stably expressing the LPAR1 receptor (Life Technologies, Grand Island, N.Y., #K1519A) were thawed, centrifuged at 1,000 rpm for 5 minutes to remove DMSO, and resuspended in FreeStyle™ media (Gibco, Grand Island, N.Y.). Forty microliters of cells were plated into PDL-coated 384-well plates (Greiner Bio-One, Monroe, N.C.) at 10,000 cells/well, and then the plates were incubated overnight in humidified 5% CO2 at 37° C. Test compounds were dissolved in DMSO, and 12-point, 1:3 dilution CRCs were prepared in duplicate; daughter plates were prepared by aliquoting 0.8 μL/well of test compound dilutions into 384-well plates. On the day of the assay, the daughter plates were diluted to 6× stocks using HEPES-buffered HBSS, then 10 μL of 6× test compounds were added to the cells, and the plates were incubated at 37° C. for one hour. After this 1 hour incubation, 10 μL of a 6× stock of the LPAR1 agonist, 18:1 LPA (Avanti Polar Lipids, Alabaster, Ala.), was prepared in HEPES-buffered HBSS+0.1% fatty acid-free BSA (Sigma, St. Louis, Mo.). The 6×LPA was added to all wells for a final concentration of 200 nM, which corresponds to the 18:1 LPA EC80 in this arrestin assay. The final DMSO concentration in the assay plate was 0.1%, and the final BSA concentration was 0.02%. After addition of LPA to all wells, the assay plates were incubated in humidified 5% CO2 at 37° C. for five hours. During the incubation period, 6× dye from the LiveBLAzer™-FRET B/G with CCF4-AM kit (Life Technologies, Grand Island, N.Y.) was prepared according to manufacturers' instructions. At the end of the 5 hour compound incubation, 10 μL of 6× dye was added to each well, and the assay plate was incubated for two hours in the dark at room temperature. Throughout the assay procedure, all volume additions were performed with a Biomek® NX liquid handler (Beckman Coulter, Indianapolis, Ind.). After the 2 hour dye-load, fluorescence was measured on an EnVision® Multilabel Plate Reader (Perkin Elmer, Waltham, Mass.) with an excitation filter at 409/20 nm and emission filters at 460/40 nm and 530/30 nm. Data processing was performed as recommended by the LiveBLAzer™-FRET B/G with CCF4-AM kit manual; all test compound CRCs were performed in duplicate with n≥3.
(In general: Reporter assays use an easily measured gene product as a stand-in for the process of interest.)

Experiment [2] addresses T1, LPAR1. The experiment in a line: LPAR1 FLIPR Assay. As to conditions: U2OS cells stably expressing LPAR1, LPA (EC80), Calcium 6 FLIPR dye; for Emax: read-out: Maximum Inhibition. The method in brief:
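Calcium flux read-out (515-575 nm, FLIPR) in LPAR1-expressing U2OS cells after LPA challenge at EC80, given 3 min after compound addition; cells carried Calcium 6 dye loaded 2 h at 37° C. Eleven-point 3-fold dilutions were fitted with a four-parameter Hill equation for IC50.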

In experiment [3] the test system is LPA-induced MCP-1 in NRK-49F cells. The experiment in a line: LPA-induced MCP-1 AlphaLISA assay. As to conditions: Rattus norvegicus, final LPA 10 μM, 7 hours; for Emax: read-out: Maximum Inhibition. The gist of the method: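 NRK-49F rat fibroblasts, serum-starved overnight, pretreated with compound for 30 min at 37 °C (1% DMSO final), then stimulated with 10 μM LPA final. MCP-1 in the supernatant was measured by mouse/rat CCL2 AlphaLISA. IC50 values came from four-parameter logistic fits of the ratio data.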
Background: In Alpha technology, singlet oxygen from a donor bead excites a nearby acceptor bead.

Experiment [4] deals with T1, LPAR1. The experiment is described as follows: IP-One HTRF Assay. As to conditions: U2OS cells stably expressing LPAR1, LPA stimulation, IP-One Tb HTRF kit; for Emax: read-out: Maximum Inhibition. As to the method:
U2OS cells stably expressing LPAR1 (Life Technologies #K1519A) were plated at 20000 cells/well in growth medium (McCoy's 5A(Life Technologies #16600-082)) with 10% dFBS (Life Technologies #26400-036), 0.1 mM non-essential amino acids, 25 mM HEPES, 1 mM sodium pyruvate, 1% penicillin/streptomycin, 50 μg/mL hygromycin, and 100 μg/mL Geneticin® in tissue culture treated 384-well white plates (Greiner #781080) in humidified 5% CO2 at 37° C. overnight. On the day of the assay, culture medium was replaced with 30 μL/well of McCoy's 5A with 0.1% BSA. Cells were incubated in humidified 5% CO2 at 37° C. for 3 more hours. Compounds were 3-fold serial diluted from 2 mM for 11-points using dimethyl sulfoxide. 1 μL of compound in DMSO was diluted in 50 μL stimulation buffer from an IP-One Tb HTRF kit (Cisbio #62IPAPEB) immediately before assay. 15 μL/well of 1.33× compound in stimulation buffer was added to cells after removal of culture medium. After 20 minutes of incubation at 37° C., 5 μL/well of 8 μM LPA diluted in stimulation buffer with 0.1% fatty acid free BSA was added to cells. […]. To EC100 wells were added 4×20 μM LPA. To the cells were added 5 μL/well IP1-d2 conjugate and 5 μLwell IP1-K antibody after 2 hours of incubation at 37° C. Cells were incubated at room temperature for 1 hour (protected from light). The plate was then read at 665 nm and 615 nm using an EnVision® Multilabel Plate Reader. IC50 values were calculated from curve fits of the ratio data using a four-parameter logistic Hill equation (Assay Explorer 3.3 Client).
(In TR-FRET formats the signal depends on donor and acceptor labels being close together.)

T1 sequence (Q92633 whole entry): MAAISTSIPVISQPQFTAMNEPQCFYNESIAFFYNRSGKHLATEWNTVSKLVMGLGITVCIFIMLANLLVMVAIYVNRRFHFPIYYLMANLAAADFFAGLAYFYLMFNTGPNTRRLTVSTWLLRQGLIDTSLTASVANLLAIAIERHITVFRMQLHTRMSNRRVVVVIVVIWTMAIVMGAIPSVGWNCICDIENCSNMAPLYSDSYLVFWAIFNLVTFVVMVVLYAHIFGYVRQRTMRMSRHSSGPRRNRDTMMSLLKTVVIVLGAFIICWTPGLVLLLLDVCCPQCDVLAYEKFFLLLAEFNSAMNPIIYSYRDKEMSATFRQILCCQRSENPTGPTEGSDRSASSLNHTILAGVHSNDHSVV

Take `COc1cc(C(=O)N(CCCc2ccccc2)CCC[C@H](C)C(=O)O)cc(OC)c1C` (single isomer, unassigned) [Example 78]: the pIC50 against LPAR1 [1] is 7.96; at LPAR1 [2], 7.48; in experiment [3] it was 7.11. Also, the Emax at LPAR1 [1] is 103%; at LPAR1 [2], 100%; in experiment [3], 95%.
Turning to `COc1cc(C(=O)N(CCCCC(=O)O)CCCc2ccccc2)c(F)c(OC)c1F` [Example 30, 5-[(2,4-difluoro-3,5-dimethoxybenzoyl)(3-phenylpropyl)amino]pentanoic Acid], the pIC50 was 6.21 against LPAR1 [1], 7.38 on LPAR1 [2] and 6.13 in experiment [3]. Besides, the Emax stood at 118% at LPAR1 [1], 96% on LPAR1 [2] and 74% in experiment [3].
As for `COc1cc(OC)c(Cl)c(C(=O)N(CCCCC(=O)O)CCCc2ccccc2)c1` [Example 39, 5-[(2-chloro-3,5-dimethoxybenzoyl)(3-phenylpropyl)amino]pentanoic Acid], the pIC50 was 5.92 against LPAR1 [1], 7.27 on LPAR1 [2] and 6.50 in experiment [3]. For the same compound, the values for the Emax (on LPAR1 [1]; at LPAR1 [2]; in experiment [3]) were 99%, 96% and 80%, respectively.
With `COc1cc(C(=O)N(CCCc2ccccc2)CC(=O)NC(C)(C)C(=O)O)cc(OC)c1C` [Example 45, N-(3,5-dimethoxy-4-methylbenzoyl)-N-(3-phenylpropyl)glycyl-2-methylalanine], the negative-log IC50 (pIC50) is 6.31 against LPAR1 [1], 7.29 at LPAR1 [2] and 5.26 in experiment [3]. In addition, the Emax at LPAR1 [1] came to 108%; at LPAR1 [2], 91%; in experiment [3] it was 71%.
`COc1cc(C(=O)N(CCCCC(=O)O)CCCc2ccccc2)cc(OC)n1` [Example 48, 5-[(2,6-dimethoxypyridine-4-carbonyl)(3-phenylpropyl)amino]pentanoic Acid]: the pIC50 against LPAR1 [1] is 5.48; at LPAR1 [2], 7.28; in experiment [3] it was less than 5.32. The Emax amounted to 113% at LPAR1 [1], 81% on LPAR1 [2] and 62% in experiment [3].
On to `COc1cc(OC)c(F)c(C(=O)N(CCCCC(=O)O)CCCc2ccccc2)c1` [Example 58, 5-[(2-fluoro-3,5-dimethoxybenzoyl)(3-phenylpropyl)amino]pentanoic Acid], for which the results for the pIC50 (against LPAR1 [1]; on LPAR1 [2]; in experiment [3]) were 6.20, 7.49 and 5.62, respectively. The Emax at LPAR1 [1] was determined as 112%; on LPAR1 [2] it was 93%; in experiment [3], 78%.
As to `COc1ccc(C2(C(=O)N(CCCCC(=O)O)CCCc3ccccc3)CC2)nc1` [Example 63, 5-{[1-(5-methoxypyridin-2-yl)cyclopropane-1-carbonyl](3-phenylpropyl)amino}pentanoic Acid], the negative-log IC50 (pIC50) on LPAR1 [1] was 5.51; at LPAR1 [2] it was 7.10; in experiment [3], 5.26. The Emax on LPAR1 [1] was 118%; at LPAR1 [2], 87%; in experiment [3], 51%.
`COc1ccc(C2(C(=O)N(CCCCC(=O)O)CCCc3ccccc3)COC2)cc1` [Example 89, 5-{[3-(4-methoxyphenyl)oxetane-3-carbonyl](3-phenylpropyl)amino}pentanoic Acid]: the figures for the negative-log IC50 (pIC50) (against LPAR1 [1]; at LPAR1 [2]; in experiment [3]) were 6.35, 7.44 and 5.33, respectively. Also, the values for the Emax (on LPAR1 [1]; on LPAR1 [2]; in experiment [3]) were 114%, 95% and 65%, respectively.
With `COc1cc(OC)cc(C(=O)N(CCCCC(=O)O)CCCc2cccc(F)c2)c1` [Example 90, 5-{(3,5-dimethoxybenzoyl)[3-(3-fluorophenyl)propyl]amino}pentanoic Acid], the pIC50 was 6.17 against LPAR1 [1], 7.43 at LPAR1 [2] and 5.60 in experiment [3]. Besides, the Emax on LPAR1 [1] was determined as 108%; at LPAR1 [2], 88%; in experiment [3], 76%.
As to `COc1cc(OC)cc(C(=O)N(CCCc2ccccc2)CCCC(C)C(=O)O)c1` (stereo not drawn) [Example 98, 5-[(3,5-dimethoxybenzoyl)(3-phenylpropyl)amino]-2-methylpentanoic Acid], the pIC50 at LPAR1 [2] is 7.54; on LPAR1 [4], 6.08; in experiment [3], 5.34. The values for the Emax (on LPAR1 [2]; on LPAR1 [4]; in experiment [3]) were 87%, 76% and 66%, respectively.
Turning to `COc1cc(OC)cc(C(=O)N(CCCc2ccccc2)CCCC(C)(C)C(=O)O)c1` [Example 108, 5-[(3,5-dimethoxybenzoyl)(3-phenylpropyl)amino]-2,2-dimethylpentanoic Acid], the pIC50 at LPAR1 [2] was 7.59; at LPAR1 [4], 6.64; in experiment [3], 6.18. In addition, the Emax at LPAR1 [2] was found to be 94%; at LPAR1 [4], 82%; in experiment [3], 83%.
For the compound `COc1cc(C(=O)N(CCCc2c(F)cccc2F)CCOCC(=O)O)cc(OC)c1C` [Example 128, (2-{[3-(2,6-difluorophenyl)propyl](3,5-dimethoxy-4-methylbenzoyl)amino}ethoxy)acetic Acid], the pIC50 was 7.64 at LPAR1 [2], 5.75 at LPAR1 [4] and 5.97 in experiment [3]. The Emax at LPAR1 [2] worked out at 89%; at LPAR1 [4] it was 101%; in experiment [3], 78%.
Turning to `COc1cc(C(=O)N(CCCCC(=O)O)CCCc2ccc(C)o2)cc(OC)c1C` [Example 138, 5-{(3,5-dimethoxy-4-methylbenzoyl)[3-(5-methylfuran-2-yl)propyl]amino}pentanoic Acid], the results for the pIC50 (on LPAR1 [2]; on LPAR1 [4]; in experiment [3]) were 7.89, 6.70 and 6.00, respectively. For the same compound, the Emax on LPAR1 [2] worked out at 89%; at LPAR1 [4], 87%; in experiment [3] it was 85%.
On to `COc1cc(C(=O)N(CCCCC(=O)NS(=O)(=O)c2ccccn2)CCCc2ccccc2)cc(OC)c1C` [Example 141, 3,5-dimethoxy-4-methyl-N-{5-oxo-5-[(pyridine-2-sulfonyl)amino]pentyl}-N-(3-phenylpropyl)benzamide], for which the results for the negative logarithm of the IC50 (pIC50) (on LPAR1 [2]; at LPAR1 [4]; in experiment [3]) were 7.55, 6.70 and 6.84, respectively. Also, the Emax at LPAR1 [2] amounted to 94%; on LPAR1 [4] it was 76%; in experiment [3], 84%.
